Test: method code SF, from PMID: 1610484
Conditions: not given

| logP | SMILES |
| --- | --- |
| 0.76 | CSCCCNC(=O)C(F)(F)Cn1cnc([N+](=O)[O-])n1 |
| -0.29 | COCCNC(=O)C(F)(F)Cn1cnc([N+](=O)[O-])n1 |
| 0.4 | CSCCNC(=O)C(F)(F)Cn1cnc([N+](=O)[O-])n1 |
| 0.01 | COCCCNC(=O)C(F)(F)Cn1cnc([N+](=O)[O-])n1 |
| -0.63 | O=C(NCCCO)C(F)(F)Cn1cnc([N+](=O)[O-])n1 |

The remaining lines, values behind:

| SMILES | logP |
| --- | --- |
| CSCCNC(=O)CCn1cnc([N+](=O)[O-])n1 | -0.07 |
| CSCCCNC(=O)Cn1cnc([N+](=O)[O-])n1 | 0.26 |
| COCCNC(=S)Cn1cnc([N+](=O)[O-])n1 | 0.25 |
| COCCCNC(=S)Cn1cnc([N+](=O)[O-])n1 | 0.63 |
| O=C(Cn1cnc([N+](=O)[O-])n1)NCCO | -1.37 |
| COCCNC(=O)CCn1cnc([N+](=O)[O-])n1 | -0.65 |
| CSCCNC(=O)Cn1cnc([N+](=O)[O-])n1 | -0.1 |

Same assay, conditions: pH 7.4

| logD | SMILES |
| --- | --- |
| -0.77 | COCCNC(=O)Cn1cnc([N+](=O)[O-])n1 |
| -0.51 | COCCCNC(=O)Cn1cnc([N+](=O)[O-])n1 |

— the SangsterLogP compilation
